Data on six compounds can be found in US20130071547A1, “LOW CALORIC FAT REPLACERS” (NESTEC S.A., priority 2009, published 2013).

Assay [1] concerns the target T1, GPR40 (Homo sapiens, UniProt O14842).
T1 construct: expressed in transfected cells; host or cells: Chem-1 (Chem1) cells stably expressing GPR40
In words: Calcium response of Chem-1 cells stably expressing GPR40 (calcium sensitive dye, Flex station). The format is cell-based. An excerpt: The calcium response of Chem-1 cells stably expressing GPR40 to increasing concentration of 12-Methyltridecanal is shown.
To determine if 12-Methyltridecanal is an agonist of GPR40, Chem1 cells stably expressing GPR40 were loaded with a calcium sensitive dye, stimulated with increasing concentrations of 12-Methyltridecanal, and their calcium response measured using a Flex station.

A further assay has as its system wild type Chem1 cells. Description: Calcium response of wild type Chem1 cells (control cells). It counts as cell-based.
Assay [2] concerns subjects. Description: 2-Alternative forced choice test of the fattiness of 12-Methyltridecanal. The format is in vivo, human. As for the experimental part:
12-Methyltridecanal was dissolved in 0.5% ethanol in water. Control samples were 0.5% ethanol in water. Three concentrations were tested. For each concentration thirty nine subjects wearing nose clips were presented with one cup containing the compound and one control cup in a random order. The subjects were asked to identify which sample is fattier. The significance level is shown with a solid line.
2-Alternative forced choice tests were used to test the fattiness of 12-Methyltridecanal. Thirty nine subjects were presented with two cups, one with a solution containing 12-Methyltridecanal and the other vehicle alone. The subjects were wearing nose clips, and were asked which sample is fattier. A significant number of participants found the sample containing the highest concentration of 12-Methyltridecanal fattier (28 out of 39 subjects, p<0.01) (FIG. 5).

Assay [3] has as its system subjects. In words: Triangle tests with GPR40 agonists (identify the odd sample). It counts as in vivo, human. Particulars: highest concentration tested, 0.5% ethanol in water, nose clips; for participants who correctly identified the odd sample: one compound cup and two control cups; for identification of the sample with the compound as the odd sample (significance): 21 subjects. As for the experimental part:
The GPR40 agonist (Compound 5 or Compound 20) was dissolved in 0.5% ethanol in water. Control samples were 0.5% ethanol in water. Three concentrations for compound 5 and four concentrations for compound 20 were tested. For each concentration twenty one subjects wearing nose clips were presented with one cup containing the compound and two control cups in a random order. The subjects were asked to identify the odd sample. […] The significance level is shown with a dashed line. * p<0.01, ** p<0.0001
Triangle tests were used with 21 subjects to determine if solutions containing Compound 5 or Compound 20 taste different from solutions with the same vehicle but without compounds. The subjects, wearing nose clips, were presented with three samples in random order, one containing the agonist, and two control solutions, and were asked to identify the odd sample. Eighteen out of 21 participants correctly identified the highest concentration of compound 5 (p<0.0001), and 13 out of 21 correctly identified the highest concentration of Compound 20 (p<0.01) (FIG. 3).

The subject of assay [4] is subjects. Description: Description of the sensory attributes of GPR40 agonists by untrained subjects. The format is in vivo, human. Particulars: for SUMMARY of the comments (sensory attributes): eight subjects with nose clips; for sensory attributes described by most participants: 0.5% ethanol solutions, untrained subjects with nose clips; for fatty mouth sensation (overall conclusion of Example 2): conclusion from triangle and descriptive tests. The text has this: In a different experiment, untrained subjects were asked to describe the sensory attributes of the agonists. The majority of participants described the molecules as creamy, oily, or providing mouth and lip coating (Tables 2 and 3).
Eight subjects wearing nose clips were presented with 0.5% ethanol solutions containing agonists of GPR40 and asked to describe them.

Assay [5] has as its target T1, GPR40. Particulars: cited from earlier work.
In assay [6] the test system is subjects. Description: Descriptive information on taste, texture and after taste of compound 20. Particulars: 51.2 μM in 0.5% ethanol, nose clips; for Taste (descriptor: number of subjects): wrapped cell: 'Slightly savoury: 1'; for Texture (descriptor: number of subjects): wrapped cells: 'Slightly viscous: 2', 'Slightly coats the mouth: 2'. It counts as in vivo, human. As for the experimental part: Six subjects wearing nose clips were presented with 0.5% ethanol in water (warm up sample) or 51.2 μM compound 20 in 0.5% ethanol (reference sample). Participants were asked to describe, avoiding hedonic terms, the taste, texture and aftertaste of the reference sample. Five out of 6 subjects found texture attributes compatible with the texture of fat.

In assay [7] the test system is subjects. Description: 2-Alternative forced choice test, which solution tastes fattier (Medica 16, rosiglitazone). The format is in vivo, human. As to conditions: agonist solution vs water, 40 subjects, p<0.05. As for the experimental part: A correct choice is defined as choosing as fattier the sample containing the test ingredients. Medica 16 and rosiglitazone were assessed independently at three concentration, 10 μM, 50 μM and 100 μM.
Forty subjects were given two solutions one containing the agonist and the other water, and asked which one tastes fattier.

“Also recorded” adds a separate entry of the source. Read-outs that look alike come from different tables or passages of the source.

T1 sequence (O14842 whole entry, species assumed): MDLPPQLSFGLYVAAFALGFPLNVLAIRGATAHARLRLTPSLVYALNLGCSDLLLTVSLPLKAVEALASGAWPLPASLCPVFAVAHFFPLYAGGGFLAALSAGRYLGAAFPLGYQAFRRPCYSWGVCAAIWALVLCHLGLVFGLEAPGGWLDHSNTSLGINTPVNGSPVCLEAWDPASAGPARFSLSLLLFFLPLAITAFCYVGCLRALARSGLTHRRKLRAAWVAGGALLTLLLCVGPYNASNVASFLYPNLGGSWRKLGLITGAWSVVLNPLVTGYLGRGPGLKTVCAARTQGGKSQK

Consider `CC(C)CCCCCCCCCCC=O` [12-Methyltridecanal], for which the “calcium response to increasing concentrations” value is reported as “clear dose-dependant response” on GPR40 [1] and “do not respond; also recorded: did not respond” in the assay on wild type Chem1 cells. Further, the “fatty taste effect versus control” value with subjects [2] (10 μM (lowest concentration), 39 subjects, 0.5% ethanol in water, nose clips) is “no significant effect”. The “subjects choosing the sample with the compound as fattier than control (correct choice)” value in the assay with subjects [2] (50 μM, 39 subjects, trend, p<0.05, not significant when taking into consideration multiple testing) was 26. The “subjects choosing the sample with the compound as fattier than control” value in the assay on subjects [2] (100 μM (highest concentration), 39 subjects, 0.5% ethanol in water, nose clips, p<0.0087 (p<0.01)) turned out to be 28 subjects. Moreover, the “fatty mouth sensation (overall conclusion of Example 2)” value (from here on “fatty mouth sensation”) in the assay on subjects [2] (conclusion from 2-Alternative forced choice test) is listed as “impart a fatty mouth sensation”.

Regarding `CC#CC(CC(=O)O)c1ccc(OCc2cc(-c3ccccc3)oc2C)cc1` (stereo not drawn) [Compound 5], in the assay with subjects [3], the “participants who correctly identified the odd sample” value is given as “Eighteen” and the “identification of the sample with the compound as the odd sample (significance)” value was “a significant number of subjects were able to identify the sample with the compound as the odd sample”. For the same compound, the “SUMMARY of the comments (sensory attributes)” value (from here on “SUMMARY of the comments”) with subjects [4] (40 μM in 0.5% ethanol, agreement over most participants on mouth coating, creaminess) is given as “Bitter; also recorded: Astringent/tingling; also recorded: Slight mouth coating, Creaminess; also recorded: Persistent”. In the assay on subjects [4], the “sensory attributes described by most participants” value was “agreement from most participants on the creaminess, mouth and lip coating”; the “fatty mouth sensation” value is recorded as “impart a fatty mouth sensation”. Further, the GPR40 agonist activity result at GPR40 [5] (as described in patent WO2005/086661) was “GPR40 agonist activity was demonstrated”.

`Cc1ccccc1C#Cc1ccc(CCC(=O)O)cc1` [Compound 20]: the “participants who correctly identified the odd sample” value in the assay on subjects [3] is on record as 13 out of 21. The “identification of the sample with the compound as the odd sample (significance)” value with subjects [3] is reported as “a significant number of subjects were able to identify the sample with the compound as the odd sample”. Also, in the assay with subjects [4] (51.2 μM in 0.5% ethanol, agreement over most participants on lip coating, creamy), the “SUMMARY of the comments” value is “Coating the lips, creamy; also recorded: Slightly bitter”. Moreover, the “sensory attributes described by most participants” value with subjects [4] was “agreement from most participants on the creaminess, mouth and lip coating”. In addition, the “fatty mouth sensation” value in the assay with subjects [4] was “impart a fatty mouth sensation”. In the assay with subjects [6], the “subjects who found texture attributes compatible with the texture of fat” value is given as “Five”. In addition, the “Others (comments)” value with subjects [6] (six subjects, wrapped cell: 'Slightly burning, hot, at the side of the tongue after spitting out.') is given as “Slightly burning,”. Besides, the “Taste (descriptor: number of subjects)” value in the assay with subjects [6] (six subjects) is reported as “Slightly”; in the assay on subjects [6] (six subjects, no taste noted), “None: 5”. The “After taste (descriptor: number of subjects)” value with subjects [6] (six subjects, wrapped cells: 'Astringent at the back of the throat', 'Bitter - Very slightly') is reported as “None: 3”. For the same compound, the “Texture (descriptor: number of subjects)” value with subjects [6] (six subjects) was “Slightly”; in the assay with subjects [6] (six subjects, a bit oily texture), “A bit oily: 1”; in the assay on subjects [6] (six subjects, greasy texture) it was “Greasy: 2”; in the assay with subjects [6] (six subjects, no texture noted), “None: 1”; in the assay on subjects [6] (six subjects, slightly coats the mouth), “Slightly coats”; in the assay on subjects [6] (six subjects, waxy texture) it was “Waxy: 1”. The GPR40 agonist activity result on GPR40 [5] (as described in Christiansen et al, Journal of Medicinal Chemistry, 2008, 51, 7061-7064) was “GPR40 agonist activity was demonstrated”.

`CCCCC/C=C\C/C=C\CCCCCCCC(=O)O` [Linoleic acid]: the “SUMMARY of the comments” value in the assay with subjects [4] (450 μM in 0.5% ethanol, r7 continues in r8 ('texture.')) is listed as “Astringent. Pungent; also recorded: Some mentions on creamy, viscous”.

With `CC(C)(CCCCCCCCCCC(C)(C)CC(=O)O)CC(=O)O` [Medica 16], the “sample with agonist chosen as tasting fattier than control” value in the assay on subjects [7] (50 μM) and in the assay with subjects [7] (100 μM) was “significantly chosen as fattier than control solution; also recorded: more subjects found the solution with agonists to taste fattier” each time.

For `CN(CCOc1ccc(CC2SC(=O)NC2=O)cc1)c1ccccn1` (stereo not drawn) [Roziglitazone], the “sample with agonist chosen as tasting fattier than control” value was “more subjects found the solution with agonists to taste fattier” with subjects [7] (50 μM); “significantly chosen as fattier than control solution” with subjects [7] (50 μM, listed as rosiglitazone); “more subjects found the solution with agonists to taste fattier” with subjects [7] (100 μM); “significantly chosen as fattier than control solution” in the assay with subjects [7] (100 μM, listed as rosiglitazone).
